Measured values as given in patent publication US6258790A, “Antisense modulation of integrin α4 expression” (Isis Pharmaceuticals, Inc., priority 1999, dated 2001).

Columns and labels:
murine integrin α4 = assay: Antisense inhibition of murine integrin α4 protein expression in IC-21 macrophage cells (flow cytometry, CD49d-PE); assay type: cell-based, mouse; conditions: for % Control / % Inhib.: Table 16
Description: Murine IC-21 macrophage cells (American Type Culture Collection, Manassas, Va.) were used for further study. Additional oligonucleotides were designed to target murine integrin α4. These are shown in Table 10; all 2' MOE nucleotides are shown in bold and remaining positions are 2' deoxy. All 2'-MOE cytosines in these compounds are 5' methylcytosines. IC-21 cells were seeded at 5×10^4 cell/well plates two days before assay. […] Wells were triplicates.
Cells (triplicates) were seeded at 2.5×10^4 cells/well in 24-well plates the day before treatment. Oligonucleotide concentrations were 0.2, 1, 5, 25 and 50 nM in 3 ug/ml LIPOFECTIN. Cells were harvested with 2 mM EDTA for 4 minutes, then 1 ml of 2% BSA, 0.2% azide was added per contents of each well.
IC-21 cells were treated with 0.3, 1, 3, 10 and 30 nM oligonucleotide with 3 ug/ml LIPOFECTIN for 4 hours. Cells were incubated for 24 hours, harvested with trypsin, stained with 2 ug/ml CD49d-PE and rat IgG2B as in previous examples.
These compounds were tested for ability to inhibit integrin α4 protein expression.

[1] = tested on: Mouse experimental autoimmune encephalomyelitis (EAE); assay: Mouse experimental autoimmune encephalomyelitis (EAE) model for multiple sclerosis; assay type: in vivo, mouse (CSJLF-1); conditions: for Peak Severity: score 0 to 5; for effect on EAE given therapeutically: therapeutic
integrin α4 = assay: Inhibition of integrin α4 protein expression in Jurkat T-lymphocyte cells; assay type: cell-based, human
Description: ISIS 107248 was tested at doses of 1, 3, 10, 20 and 30 μM for ability to inhibit integrin α4 expression in Jurkat T-lymphocyte cells according to the previous examples. Integrin α4 protein expression was reduced by approximately 65-72% at oligonucleotide doses of 3-30 μM at 24 hours after oligonucleotide treatment. At 48 hours after treatment, integrin α4 protein expression was reduced by 60% at 3 μM and by 90% at 10, 20 and 30 μM oligonucleotide concentration.

[2] = EAE Experiment 1, 1 mg/kg daily SC
[3] = EAE Experiment 1, 5 mg/kg daily SC
[4] = EAE Experiment 1, 10 mg/kg daily SC
[5] = EAE Experiment 1, 20 mg/kg daily SC
[6] = EAE Experiment 3, 1 mg/kg 3× weekly
[7] = EAE Experiment 4, 0.01 mg/kg, prophylactic (P)
[8] = EAE Experiment 4, 0.1 mg/kg SC, prophylactic (P)
[9] = EAE Experiment 4, 1.0 mg/kg SC, prophylactic (P)
[10] = EAE Experiment 4, 1 mg/kg, therapeutic (T), day 18 to 31
[11] = EAE Experiment 4, 2.0 mg/kg SC, prophylactic (P)
[12] = EAE Experiment 5, 0.01 mg/kg, prophylactic (P)
[13] = EAE Experiment 5, 0.1 mg/kg SC, prophylactic (P)
[14] = EAE Experiment 5, 1.0 mg/kg SC, prophylactic (P)
[15] = EAE Experiment 5, 1 mg/kg, therapeutic (T), day 11 to 27
[16] = EAE Experiment 5, 2.0 mg/kg SC, prophylactic (P)

17044 (CCGCAGCCATGCGCTCTTGG; phosphorothioate, 2'-MOE/deoxy, further chemistry not given here) [compound 17044]
reduction of integrin α4 expression (murine integrin α4; Example 14): reduce integrin α4 expression to below starting levels | % Control (murine integrin α4; 0.3 nM): 100% | % Inhib. (murine integrin α4; 0.3 nM): 0% | % Control (murine integrin α4; 1 nM): 81% | % Inhib. (murine integrin α4; 1 nM): 19% | % Control (murine integrin α4; 3 nM): 32% | % Inhib. (murine integrin α4; 3 nM): 68% | % Control (murine integrin α4; 10 nM): -9% | % Inhib. (murine integrin α4; 10 nM): > 100% | effect on EAE ([1]; EAE Experiment 1): reduced disease severity or delayed disease onset | Days to Onset [1, 2]: 17.25 days | Disease Incidence [1, 2]: 4/7 | Peak Severity [1, 2]: 0.29 | Days to Onset [1, 3]: 17 days | Disease Incidence [1, 3]: 6/7 | Peak Severity [1, 3]: 1.86 | Days to Onset [1, 4]: 12.75 days | Disease Incidence [1, 4]: 4/7 | Peak Severity [1, 4]: 2.0 | Days to Onset [1, 5]: 15 days | Disease Incidence [1, 5]: 5/7 | Peak Severity [1, 5]: 1.43 | effect on EAE ([1]; EAE Experiment 2): reduced disease severity and delayed disease onset at all concentrations | Days to Onset ([1]; EAE Experiment 2, 0.3 mg/kg SC): 16.57 days | Disease Incidence ([1]; EAE Experiment 2, 0.3 mg/kg SC): 7/7 | Peak Severity ([1]; EAE Experiment 2, 0.3 mg/kg SC): 2.14 | Days to Onset ([1]; EAE Experiment 2, 1 mg/kg IV): 17.2 days | Disease Incidence ([1]; EAE Experiment 2, 1 mg/kg IV): 5/7 | Peak Severity ([1]; EAE Experiment 2, 1 mg/kg IV): 1.42 | Days to Onset ([1]; EAE Experiment 2, 1 mg/kg SC): 18.25 days | Disease Incidence ([1]; EAE Experiment 2, 1 mg/kg SC): 4/7 | Peak Severity ([1]; EAE Experiment 2, 1 mg/kg SC): 1.0 | Days to Onset ([1]; EAE Experiment 2, 3 mg/kg SC): 16.4 days | Disease Incidence ([1]; EAE Experiment 2, 3 mg/kg SC): 7/7 | Peak Severity ([1]; EAE Experiment 2, 3 mg/kg SC): 2.29 | effect on EAE ([1]; EAE Experiment 3): reduced disease severity or delayed disease onset | Days to Onset ([1]; EAE Experiment 3, 0.5 mg/kg SC): 21.4 days | Disease Incidence ([1]; EAE Experiment 3, 0.5 mg/kg SC): 5/6 | Peak Severity ([1]; EAE Experiment 3, 0.5 mg/kg SC): 1.5 | Days to Onset [1, 6]: 20.3 days | Disease Incidence [1, 6]: 6/7 | Peak Severity [1, 6]: 1.0 | Days to Onset ([1]; EAE Experiment 3, 1.0 mg/kg SC): 19.25 days | Disease Incidence ([1]; EAE Experiment 3, 1.0 mg/kg SC): 4/5 | Peak Severity ([1]; EAE Experiment 3, 1.0 mg/kg SC): 1.5 | Days to Onset ([1]; EAE Experiment 3, 1.5 mg/kg SC): 17.5 days | Disease Incidence ([1]; EAE Experiment 3, 1.5 mg/kg SC): 4/7 | Peak Severity ([1]; EAE Experiment 3, 1.5 mg/kg SC): 1.5 | Days to Onset ([1]; EAE Experiment 3, 2 mg/kg SC): 20 days | Disease Incidence ([1]; EAE Experiment 3, 2 mg/kg SC): 2/6 | Peak Severity ([1]; EAE Experiment 3, 2 mg/kg SC): 0.83 | Days to Onset [1, 7]: 13.83 days | Disease Incidence [1, 7]: 6/7 | Peak Severity [1, 7]: 1.86 | Days to Onset [1, 8]: 16.29 days | Disease Incidence [1, 8]: 7/7 | Peak Severity [1, 8]: 1.57 | Days to Onset [1, 9]: 15 days | Disease Incidence [1, 9]: 5/5 | Peak Severity [1, 9]: 2.2 | Days to Onset [1, 10]: 13.3 days | Disease Incidence [1, 10]: 6/6 | Peak Severity [1, 10]: 1.83 | Days to Onset [1, 11]: 16.71 days | Disease Incidence [1, 11]: 7/7 | Peak Severity [1, 11]: 2.29 | effect on EAE given therapeutically ([1]; EAE Experiment 4): reduced disease severity when given therapeutically | Days to Onset [1, 12]: 11.57 days | Disease Incidence [1, 12]: 7/7 | Peak Severity [1, 12]: 1.57 | Days to Onset [1, 13]: 12.67 days | Disease Incidence [1, 13]: 6/7 | Peak Severity [1, 13]: 1.14 | Days to Onset [1, 14]: 11.33 days | Disease Incidence [1, 14]: 6/7 | Peak Severity [1, 14]: 1.86 | Days to Onset [1, 15]: 12.71 days | Disease Incidence [1, 15]: 7/7 | Peak Severity [1, 15]: 1.42 | Days to Onset [1, 16]: 12 days | Disease Incidence [1, 16]: 7/7 | Peak Severity [1, 16]: 1.86 | effect on EAE given therapeutically ([1]; EAE Experiment 5): reduced disease severity when given therapeutically

107248 (antisense CTGAGTCTGTTTTCCATTCT; chemistry not given here) [compound 107248]
reduction of integrin α4 protein expression (integrin α4; 3 μM, 48 hours): 60% | reduction of integrin α4 protein expression (integrin α4; 10 μM, 48 hours): 90% | reduction of integrin α4 protein expression (integrin α4; 20 μM, 48 hours): 90% | reduction of integrin α4 protein expression (integrin α4; 30 μM, 48 hours): 90% | reduction of integrin α4 protein expression (integrin α4; 3-30 μM, 24 hours): 65-72%
